Assay results published in PubChem BioAssay AID248 (DTP/NCI, 2004).
Several values for one entry are separate records, joined by “and”; a condition that tells them apart may be missing. Equal values may be shown once. Toxic doses and inconclusive results are not listed. Cut-off read from the data, not from the text of the source: active = T/C of 150% or more; inactive = T/C below 125%.

System: L1210 leukemia ip in BDF1 mice, survival T/C
Assay: NCI In Vivo Anticancer Drug Screen. Data for tumor model L1210 Leukemia (intraperitoneal) in B6D2F1 (BDF1) mice
Conditions: higher = longer survival
Summary of the method: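 Read-out is survival time, reported as the treated-group measurement over the vehicle-control measurement.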

[1] = endpoint: mean survival time, dose: 100.0 mg/kg/injection, schedule: Q04DX002 (ip), vehicle: saline
[2] = endpoint: mean survival time, dose: 100.0 mg/kg/injection, schedule: Q04DX003 (ip), vehicle: saline
[3] = endpoint: mean survival time, dose: 200.0 mg/kg/injection, schedule: Q04DX003 (ip), vehicle: saline
[4] = endpoint: mean survival time, dose: 400.0 mg/kg/injection, schedule: Q04DX002 (ip), vehicle: saline

Measured: T/C

CN(N=O)C(=O)N[C@@H](C=O)[C@@H](O)[C@H](O)[C@H](O)CO
inactive: endpoint: mean survival time, dose: 0.5 mg/kg/injection, schedule: Q03HX040 (ip), vehicle: other 94 % of control | endpoint: mean survival time, dose: 1.0 mg/kg/injection, schedule: Q03HX040 (ip), vehicle: other 98 % of control | endpoint: mean survival time, dose: 2.0 mg/kg/injection, schedule: Q03HX040 (ip), vehicle: other 92 % of control | endpoint: mean survival time, dose: 2.3 mg/kg/injection, schedule: Q01DX009 (ip), vehicle: other 96 % of control and 101 % of control | endpoint: mean survival time, dose: 4.0 mg/kg/injection, schedule: Q03HX040 (ip), vehicle: other 104 % of control | endpoint: mean survival time, dose: 4.5 mg/kg/injection, schedule: Q01DX009 (ip), vehicle: other 92 % of control and 105 % of control | endpoint: mean survival time, dose: 8.0 mg/kg/injection, schedule: Q03HX040 (ip), vehicle: other 112 % of control | endpoint: mean survival time, dose: 8.0 mg/kg/injection, schedule: Q## X009 (ip), vehicle: other 98 % of control | endpoint: mean survival time, dose: 9.0 mg/kg/injection, schedule: Q01DX009 (ip), vehicle: other 99 % of control and 111 % of control | endpoint: mean survival time, dose: 12.5 mg/kg/injection, schedule: Q01DX009 (ip), vehicle: saline 101 % of control and 107 % of control | endpoint: mean survival time, dose: 12.5 mg/kg/injection, schedule: Q01DX009 (ip), vehicle: water 104 % of control | endpoint: mean survival time, dose: 16.0 mg/kg/injection, schedule: Q01DX017 (ip), vehicle: other 107 % of control | endpoint: mean survival time, dose: 16.0 mg/kg/injection, schedule: Q03HX040 (ip), vehicle: other 110 % of control | endpoint: mean survival time, dose: 16.0 mg/kg/injection, schedule: Q## X009 (ip), vehicle: other 94 % of control | endpoint: mean survival time, dose: 17.0 mg/kg/injection, schedule: Q04DX002 (ip), vehicle: other 97 % of control and 113 % of control | endpoint: mean survival time, dose: 24.5 mg/kg/injection, schedule: Q01DX Z (ip), vehicle: water 112 % of control | endpoint: mean survival time, dose: 25.0 mg/kg/injection, schedule: Q01DX009 (ip), vehicle: other 120 % of control | endpoint: mean survival time, dose: 25.0 mg/kg/injection, schedule: Q01DX Z (ip), vehicle: water 115 % of control | endpoint: mean survival time, dose: 25.0 mg/kg/injection, schedule: Q04DX003 (ip), vehicle: saline 96 % of control and 100 % of control | endpoint: mean survival time, dose: 32.0 mg/kg/injection, schedule: Q01DX001 (ip), vehicle: other 100 % of control | endpoint: mean survival time, dose: 32.0 mg/kg/injection, schedule: Q02DX009 (ip), vehicle: other 112 % of control | endpoint: mean survival time, dose: 32.0 mg/kg/injection, schedule: Q04DX005 (ip), vehicle: other 101 % of control | endpoint: mean survival time, dose: 32.0 mg/kg/injection, schedule: Q08DX003 (ip), vehicle: other 101 % of control | endpoint: mean survival time, dose: 32.0 mg/kg/injection, schedule: Q## X009 (ip), vehicle: other 112 % of control | endpoint: mean survival time, dose: 49.5 mg/kg/injection, schedule: Q01DX Z (ip), vehicle: water 120 % of control | endpoint: mean survival time, dose: 50.0 mg/kg/injection, schedule: Q01DX009 (ip), vehicle: citric acid 110 % of control | endpoint: mean survival time, dose: 50.0 mg/kg/injection, schedule: Q04DX002 (ip), vehicle: saline 104 % of control | endpoint: mean survival time, dose: 50.0 mg/kg/injection, schedule: Q04DX003 (ip), vehicle: saline 105 % of control and 110 % of control | endpoint: mean survival time, dose: 64.0 mg/kg/injection, schedule: Q01DX001 (ip), vehicle: other 105 % of control | endpoint: mean survival time, dose: 64.0 mg/kg/injection, schedule: Q04DX005 (ip), vehicle: other 111 % of control | endpoint: mean survival time, dose: 64.0 mg/kg/injection, schedule: Q08DX003 (ip), vehicle: other 104 % of control | endpoint: mean survival time, dose: 67.0 mg/kg/injection, schedule: Q01DX009 (ip), vehicle: citric acid 116 % of control | endpoint: mean survival time, dose: 100.0 mg/kg/injection, schedule: Q01DX001 (ip), vehicle: other 103 % of control | endpoint: mean survival time, dose: 100.0 mg/kg/injection, schedule: Q01DX009 (ip), vehicle: citric acid 123 % of control and 124 % of control and 89 % of control | endpoint: mean survival time, dose: 100.0 mg/kg/injection, schedule: Q01DX009 (ip), vehicle: other 118 % of control | endpoint: mean survival time, dose: 100.0 mg/kg/injection, schedule: Q01DX Z (ip), vehicle: water 117 % of control | [1] 120 % of control | [2] 97 % of control | endpoint: mean survival time, dose: 128.0 mg/kg/injection, schedule: Q01DX001 (ip), vehicle: other 114 % of control | endpoint: mean survival time, dose: 128.0 mg/kg/injection, schedule: Q02DX009 (ip), vehicle: other 117 % of control | endpoint: mean survival time, dose: 128.0 mg/kg/injection, schedule: Q04DX005 (ip), vehicle: other 118 % of control | endpoint: mean survival time, dose: 128.0 mg/kg/injection, schedule: Q08DX003 (ip), vehicle: other 111 % of control | endpoint: mean survival time, dose: 138.0 mg/kg/injection, schedule: Q01DX009 (ip), vehicle: other 92 % of control | endpoint: mean survival time, dose: 150.0 mg/kg/injection, schedule: Q01DX009 (ip), vehicle: citric acid 90 % of control | endpoint: mean survival time, dose: 200.0 mg/kg/injection, schedule: Q01DX001 (ip), vehicle: other 122 % of control | [3] 96 % of control and 97 % of control | endpoint: mean survival time, dose: 250.0 mg/kg/injection, schedule: Q01DX001 (ip), vehicle: citric acid 116 % of control | endpoint: mean survival time, dose: 256.0 mg/kg/injection, schedule: Q01DX001 (ip), vehicle: other 110 % of control | endpoint: mean survival time, dose: 256.0 mg/kg/injection, schedule: Q04DX005 (ip), vehicle: other 114 % of control | endpoint: mean survival time, dose: 256.0 mg/kg/injection, schedule: Q08DX003 (ip), vehicle: other 117 % of control | endpoint: mean survival time, dose: 300.0 mg/kg/injection, schedule: Q01DX001 (ip), vehicle: citric acid 118 % of control and 122 % of control | endpoint: mean survival time, dose: 300.0 mg/kg/injection, schedule: Q04DX002 (ip), vehicle: acid diluted with saline 93 % of control | endpoint: mean survival time, dose: 350.0 mg/kg/injection, schedule: Q01DX001 (ip), vehicle: citric acid 112 % of control | endpoint: mean survival time, dose: 400.0 mg/kg/injection, schedule: Q01DX001 (ip), vehicle: citric acid 111 % of control | endpoint: mean survival time, dose: 400.0 mg/kg/injection, schedule: Q01DX009 (ip), vehicle: saline 108 % of control | [4] 93 % of control and 123 % of control | endpoint: mean survival time, dose: 518.0 mg/kg/injection, schedule: Q04DX002 (ip), vehicle: other 95 % of control | endpoint: median survival time, dose: 14.0 mg/kg/injection, schedule: Q01DX009 (ip), vehicle: Klucel (hydroxypropylcellulose) (HPC) 111 % of control | endpoint: median survival time, dose: 17.0 mg/kg/injection, schedule: Q01DX009 (ip), vehicle: water 108 % of control and 114 % of control | endpoint: median survival time, dose: 26.0 mg/kg/injection, schedule: Q01DX009 (ip), vehicle: water 104 % of control and 117 % of control | endpoint: median survival time, dose: 39.0 mg/kg/injection, schedule: Q01DX009 (ip), vehicle: Klucel (hydroxypropylcellulose) (HPC) 116 % of control | endpoint: median survival time, dose: 39.0 mg/kg/injection, schedule: Q01DX009 (ip), vehicle: water 111 % of control | endpoint: median survival time, dose: 87.0 mg/kg/injection, schedule: Q01DX009 (ip), vehicle: water 114 % of control | endpoint: median survival time, dose: 130.0 mg/kg/injection, schedule: Q01DX009 (ip), vehicle: water 86 % of control

COc1ccc(OC(=O)N2C=Cc3ccccc3C2C#N)cc1 (centres undefined)
inactive: endpoint: mean survival time, dose: 100.0 mg/kg/injection, schedule: Q01DX001 (ip), vehicle: saline 93 % of control | [2] 105 % of control | endpoint: mean survival time, dose: 200.0 mg/kg/injection, schedule: Q01DX001 (ip), vehicle: saline 97 % of control | [3] 97 % of control | endpoint: mean survival time, dose: 400.0 mg/kg/injection, schedule: Q01DX001 (ip), vehicle: saline 91 % of control | endpoint: mean survival time, dose: 400.0 mg/kg/injection, schedule: Q04DX003 (ip), vehicle: saline 97 % of control

CCCN1CSC(=S)N(Cc2ccccc2)C1
inactive: endpoint: mean survival time, dose: 100.0 mg/kg/injection, schedule: Q04DX003 (ip), vehicle: saline with Tween-80 95 % of control | endpoint: mean survival time, dose: 200.0 mg/kg/injection, schedule: Q04DX003 (ip), vehicle: saline with Tween-80 93 % of control | endpoint: mean survival time, dose: 400.0 mg/kg/injection, schedule: Q04DX003 (ip), vehicle: saline with Tween-80 90 % of control

CCCCP(=O)(CCCC)Oc1ccccc1F
inactive: endpoint: mean survival time, dose: 100.0 mg/kg/injection, schedule: Q01DX009 (ip), vehicle: saline with Tween-80 90 % of control | endpoint: mean survival time, dose: 200.0 mg/kg/injection, schedule: Q01DX009 (ip), vehicle: saline with Tween-80 86 % of control

Cc1nonc1C(=O)O
inactive: [1] 102 % of control | endpoint: mean survival time, dose: 200.0 mg/kg/injection, schedule: Q04DX002 (ip), vehicle: saline 87 % of control | [4] 98 % of control

CCOC1=C(Br)C=CN(S(=O)(=O)c2ccc(C)cc2)c2ccc(OC)cc21
inactive: endpoint: mean survival time, dose: 100.0 mg/kg/injection, schedule: Q01DX009 (ip), vehicle: Klucel (hydroxypropylcellulose) (HPC) 98 % of control | endpoint: mean survival time, dose: 100.0 mg/kg/injection, schedule: Q04DX003 (ip), vehicle: Klucel (hydroxypropylcellulose) (HPC) 95 % of control | endpoint: mean survival time, dose: 200.0 mg/kg/injection, schedule: Q01DX009 (ip), vehicle: Klucel (hydroxypropylcellulose) (HPC) 101 % of control | endpoint: mean survival time, dose: 200.0 mg/kg/injection, schedule: Q04DX003 (ip), vehicle: Klucel (hydroxypropylcellulose) (HPC) 101 % of control | endpoint: mean survival time, dose: 400.0 mg/kg/injection, schedule: Q01DX009 (ip), vehicle: Klucel (hydroxypropylcellulose) (HPC) 100 % of control | endpoint: mean survival time, dose: 400.0 mg/kg/injection, schedule: Q04DX003 (ip), vehicle: Klucel (hydroxypropylcellulose) (HPC) 91 % of control
